Reference: ChEMBL document CHEMBL4359887, “Hitting on the move: Targeting intrinsically disordered protein states of the MDM2-p53 interaction” (Eur J Med Chem, 2019)

Legend:
[1] = tested on: SAOS-2; experiment: Anticancer activity against p53-deleted human Saos2 cells assessed as inhibition of cell viability measured after 5 days by MTT assay; details: SAOS-2, 120 h
[2] = tested on: U2OS; experiment: Anticancer activity against human U2OS cells expressing wild-type p53 assessed as inhibition of cell viability measured after 5 days by MTT assay; details: 120 h

EC50 [2]: 40 µM
Structure (SMILES): CC1(C)[C@H]2CC[C@@]1(C)C(NC(=O)C(c1c(C(=O)O)[nH]c3cc(Cl)ccc13)N(C=O)Cc1ccc(OCc3ccccc3Br)cc1)C2 (some centres not stated)
EC50 [1]: 60 µM
